Measurements taken from patent US20220117941A1, “CARBAMATE COMPOUND AND USE OF FORMULATION COMPRISING SAME IN PREVENTING, ALLEVIATING, OR TREATING ACUTE STRESS DISORDER OR POST-TRAUMATIC STRESS DISORDER” (SK BIOPHARMACEUTICALS CO., LTD., priority 2018, published 2022).
Where a name gives a salt, the structure may show the parent alone.

Columns and labels:
blood corticoid = test: Measurement of corticoid in blood of SPS-induced post-traumatic stress disorder rats (ELISA); format: in vivo, rats (Sprague-Dawley); settings: SPS-induced PTSD rats; 30 mg/kg orally for 15 days; vs vehicle-treated PTSD-induced rats; FIG. 4
Protocol: Adult male rats (Sprague-Dawley, 200 to 230 g) were used. The experimental animals were maintained at a light-and-darkness cycle of 12 hours (illuminated from 7 pm to 7 am), a temperature of 22 to 25° C., a relative humidity of 40 to 60%, and free access to water and food. The animals were randomly divided into three groups as follows: • Eight (8) rats as a control group, orally administered with saline as a vehicle at a dose volume of 3 ml/kg (Group 1) • Seven (7) rats in which post-traumatic stress disorder was induced, and saline as a vehicle was then orally administered at a dose volume of 3 ml/kg (Group 2) • Seven (7) rats in which post-traumatic stress disorder was induced, and Test Compound was then orally administered at a dose of 30 mg/kg (3 ml/kg) (Group 3) […]
(§1) Post-traumatic stress disorder was induced in Group 2 and Group 3 as described above. […] All experimental animals were measured daily for changes in mortality and body weight to determine whether post-traumatic stress disorder was well induced. […]
Rats were sacrificed rapidly by decapitation on the day after the forced swimming test, and blood was quickly collected via the abdominal aorta. […] The corticoid concentration was measured by enzyme-linked immunoassay (ELISA) using a Novus Biologicals Corticosterone kit. The results were measured by means of an ELISA reader (MultiRead 400) to calculate the concentration of corticoid. […]

[1] = test system: rats in which post-traumatic stress disorder was induced by single prolonged stress (SPS); test: Forced swimming test in rats with post-traumatic stress disorder induced by single prolonged stress (SPS); format: in vivo, rats (Sprague-Dawley); settings: SPS-induced PTSD rats; 30 mg/kg orally for 15 days; FIGS. 1 to 3
Protocol: Adult male rats (Sprague-Dawley, 200 to 230 g) were used. The experimental animals were maintained at a light-and-darkness cycle of 12 hours (illuminated from 7 pm to 7 am), a temperature of 22 to 25° C., a relative humidity of 40 to 60%, and free access to water and food. […]
as §1
To carry out a forced swimming test in the rats of Groups 1 to 3, water of 25° C. was filled to a height of 30 cm in a transparent cylinder (20 cm in diameter×50 cm in height). […] After 24 hours, rats were inserted into the cylinder for 5 minutes and the escape behavior of rats was recorded and measured using a video camera. […] Climbing behavior measured the time to climb upward, immobility behavior measured the time to not escape, and swimming behavior measured the time to move horizontally in the cylinder. […]

mice (CD-1) = test: Forced swimming test in mice with combination of Test Compound and selective serotonergic reuptake inhibitor; format: in vivo; settings: CD-1 mice, 30 min after injection, FIG. 5
Protocol: Adult mice (CD-1) were used. The experimental animals were maintained at a light-and-darkness cycle of 12 hours (illuminated from 7 pm to 7 am), a temperature of 22 to 25° C., a relative humidity of 40 to 60%, and free access to water and food. The animals were randomly divided into four groups as follows: • Eight (8) mice as a control group, administered with intraperitoneal injection of saline as a vehicle at a dose volume of 10 ml/kg (Group 1) • Eight (8) mice as an experimental group, administered with intraperitoneal injection of Test Compound at a dose of 5 mg/kg (10 ml/kg) (Group 2) • Eight (8) mice as an experimental group, administered with intraperitoneal injection of fluoxetine hydrochloride at a dose of 10 mg/kg (10 ml/kg) (Group 3) • Eight (8) mice as an experimental group, administered with intraperitoneal injection of Test Compound at a dose of 5 mg/kg (10 ml/kg) and fluoxetine hydrochloride at a dose of 10 mg/kg (10 ml/kg) (Group 4)
To perform a forced swimming test in the mice of Groups 1 to 4, water of 25° C. was filled to a height of 20 cm in a transparent cylinder. […] The results are represented in FIG. 5.
Statistical analysis was carried out by using one-way ANOVA in Prism 7.04.

Structure (SMILES)	blood corticoid concentration (blood corticoid)	efficacy on symptoms associated with post-traumatic stress disorder (climbing, immobility and swimming behaviors in forced swimming test) [1]	immobility time in forced swimming test (Test Compound alone) (mice (CD-1); 5 mg/kg intraperitoneal)	immobility time in forced swimming test (fluoxetine alone) (mice (CD-1); fluoxetine hydrochloride 10 mg/kg intraperitoneal)
NC(=O)O[C@@H](Cn1ncnn1)c1ccccc1Cl [Test Compound]	statistically significant reduction	showing efficacy on alleviating symptoms associated with post-traumatic stress disorder	ineffective dose	
CNCCC(Oc1ccc(C(F)(F)F)cc1)c1ccccc1 (stereo not shown) [fluoxetine, fluoxetine hydrochloride, reference compound]				ineffective dose
